Patent publication US20150011423A1, “MEANS AND METHODS FOR ASSESSING KIDNEY TOXICITY” (BASF SE, priority 2011, published 2015)
Values joined by “and” are separate entries in the source; they are usually repeats but may differ in a detail not shown here. Identical values can stand only once. Like-named read-outs stand apart in the source and are kept apart here. Marks after values point to notes of the source that are not given here. Each block holds one molecule with its values, some of them ahead of it.

What was measured:
rats [1] = settings: rat, in vivo
rats [2] = test: 28-day repeated dose study in rats with mass spectrometry-based plasma metabolite profiling (GC-MS, LC-MS, SPE-LC-MS); treatment ratios versus control
[3] = plasma, female rats, day 14, high dose, Table 2a glomerular-tubular defect
[4] = plasma, female rats, day 14, high dose, Table 2b glomerular-tubular defect
[5] = plasma, female rats, day 28, high dose, Table 2a glomerular-tubular defect
[6] = plasma, female rats, day 28, high dose, Table 2b glomerular-tubular defect
[7] = plasma, male rats, day 7, high dose, Table 2d glomerular-tubular defect
[8] = plasma, male rats, day 14, high dose, Table 2c glomerular-tubular defect
[9] = plasma, male rats, day 14, high dose, Table 2d glomerular-tubular defect
[10] = plasma, male rats, day 28, high dose, Table 2c glomerular-tubular defect
[11] = plasma, male rats, day 28, high dose, Table 2d glomerular-tubular defect
[12] = plasma, male rats, day 28, high dose, Table 8a direct tubular effect
[13] = plasma, male rats, day 28, high dose, Table 8b direct tubular effect
[14] = plasma, female rats, day 28, high dose, Table 5a tubular necrosis
[15] = plasma, female rats, day 28, high dose, Table 5b tubular necrosis

3-Indoxylsulfate, treatment ratio versus control (rats [1]): 1.41 *
Adrenaline (Epinephrine), treatment ratio versus control (rats [1]): 1.14^
Histamine, treatment ratio versus control (rats [1]): 1.36^
Threonic acid, treatment ratio versus control (rats [1]): 1.47 *
3-Hydroxyindole, treatment ratio versus control (rats [2]; [3]): 0.87^
3-Indoxylsulfate, treatment ratio versus control (rats [2]; [3]): 0.93^
Creatinine, treatment ratio versus control (rats [2]; [3]): 1.69 *
Elaidic acid (C18:trans[9]1), treatment ratio versus control (rats [2]; [3]): 1.2
Adrenaline (Epinephrine), treatment ratio versus control (rats [2]; [4]): 0.55 *
Glucosamine, treatment ratio versus control (rats [2]; [4]): 0.75^
Mannosamine, treatment ratio versus control (rats [2]; [4]): 0.64 *
3-Hydroxyindole, treatment ratio versus control (rats [2]; [5]): 1.53 *
Elaidic acid (C18:trans[9]1), treatment ratio versus control (rats [2]; [5]): 1.35 *
Glucosamine, treatment ratio versus control (rats [2]; [6]): 0.48 *
Histamine, treatment ratio versus control (rats [2]; [6]): 0.52 *
Mannosamine, treatment ratio versus control (rats [2]; [6]): 0.5 *
4-Hydroxy-3-methoxyphenylglycol (HMPG), treatment ratio versus control (rats [2]; [7]): 0.91 *
Cysteine, treatment ratio versus control (rats [2]; [7]): 0.46 *
Isopalmitic acid (C16:0), treatment ratio versus control (rats [2]; [7]): 0.75 *
Metanephrine, treatment ratio versus control (rats [2]; [7]): 0.83 *
Normetanephrine, treatment ratio versus control (rats [2]; [7]): 0.79 *
Creatine, treatment ratio versus control (rats [2]; [8]): 1.35 *
Creatinine, treatment ratio versus control (rats [2]; [8]): 1.8 *
Threonic acid, treatment ratio versus control (rats [2]; [8]): 1.4 *
4-Hydroxy-3-methoxyphenylglycol (HMPG), treatment ratio versus control (rats [2]; [9]): 0.84 *
Cysteine, treatment ratio versus control (rats [2]; [9]): 0.51 *
Metanephrine, treatment ratio versus control (rats [2]; [9]): 0.43 *
Normetanephrine, treatment ratio versus control (rats [2]; [9]): 0.66 *
Creatine, treatment ratio versus control (rats [2]; [10]): 1.27 *
Glycerol-3-phosphate, polar fraction, treatment ratio versus control (rats [2]; [10]): 1.4 *
Lysophosphatidylcholine (C18:2), treatment ratio versus control (rats [2]; [10]): 1.1
Threonic acid, treatment ratio versus control (rats [2]; [10]): 1.7 *
4-Hydroxy-3-methoxyphenylglycol (HMPG), treatment ratio versus control (rats [2]; [11]): 0.79 *
Cysteine, treatment ratio versus control (rats [2]; [11]): 0.85 *
Metanephrine, treatment ratio versus control (rats [2]; [11]): 0.68 *
Normetanephrine, treatment ratio versus control (rats [2]; [11]): 0.68 *
Structure (SMILES): CC(C)(S)[C@@H](N)C(=O)O [Penicillamine]

Choline plasmalogen No 03, treatment ratio versus control (rats [1]): 1.25 *
Histidine, treatment ratio versus control (rats [1]): 1.29 *
Pantothenic acid, treatment ratio versus control (rats [1]): 1.23 *
Threonic acid, treatment ratio versus control (rats [1]): 1.46 *
Threonine, treatment ratio versus control (rats [1]): 1.58 *
Valine, treatment ratio versus control (rats [1]): 1.15 *
trans-4-Hydroxyproline, treatment ratio versus control (rats [1]): 1.23 *
18-Hydroxy-11-deoxycorticosterone, treatment ratio versus control (rats [2]; rat, in vivo): 0.38 *
Choline plasmalogen No 03, treatment ratio versus control (rats [2]; rat, in vivo): 1.55 * and 1.56 *
Creatinine, treatment ratio versus control (rats [2]; rat, in vivo): 0.84 *
Glutamate, treatment ratio versus control (rats [2]; rat, in vivo): 0.55 * and 0.65 * and 0.7 *
Glycine, treatment ratio versus control (rats [2]; rat, in vivo): 1.5 *
Hippuric acid, treatment ratio versus control (rats [2]; rat, in vivo): 0.38 *
Lysophosphatidylcholine (C20:4), treatment ratio versus control (rats [2]; rat, in vivo): 0.85 * and 0.87 * and 0.89 *
Malate, treatment ratio versus control (rats [2]; rat, in vivo): 0.61 * and 0.55 * and 0.54 *
Proline, treatment ratio versus control (rats [2]; rat, in vivo): 1.23
Sphingomyelin (d18:2, C16:0), treatment ratio versus control (rats [2]; rat, in vivo): 2.34*
Threonine, treatment ratio versus control (rats [2]; rat, in vivo): 1.2 * and 1.59 *
Structure (SMILES): Cn1c(=O)c2c(ncn2C)n(C)c1=O [Caffeine]

Leucine, treatment ratio versus control (rats [1]): 1.23 *
Lysophosphatidylethanolamine (C22:0), treatment ratio versus control (rats [1]): 1.26 *
Ornithine, treatment ratio versus control (rats [1]): 1.24 *
Glycerol-3-phosphate, polar fraction, treatment ratio versus control (rats [2]; [12]): 1.64 *
Isoleucine, treatment ratio versus control (rats [2]; [12]): 1.2 *
TAG No 02, treatment ratio versus control (rats [2]; [12]): 1.91 *
Threonine, treatment ratio versus control (rats [2]; [12]): 1.03
14-Methylhexadecanoic acid, treatment ratio versus control (rats [2]; [13]): 0.81
16-Methylheptadecanoic acid, treatment ratio versus control (rats [2]; [13]): 0.76
18-Hydroxy-11-deoxycorticosterone, treatment ratio versus control (rats [2]; [13]): 0.23 *
Citrate, treatment ratio versus control (rats [2]; [13]): 0.82 *
DAG (C18:1, C18:2), treatment ratio versus control (rats [2]; [13]): 0.43 *
Elaidic acid (C18:trans[9]1), treatment ratio versus control (rats [2]; [13]): 0.84
Isopalmitic acid (C16:0), treatment ratio versus control (rats [2]; [13]): 0.62
Ketoleucine, treatment ratio versus control (rats [2]; [13]): 0.75 *
Linolenic acid (C18:cis[9,12,15]3), treatment ratio versus control (rats [2]; [13]): 0.56 *
Lysophosphatidylcholine (C18:0), treatment ratio versus control (rats [2]; [13]): 0.99 *
Oleic acid (C18:cis[9]1), treatment ratio versus control (rats [2]; [13]): 0.75 *
Palmitoleic acid (C16:cis[9]1), treatment ratio versus control (rats [2]; [13]): 0.76 *
TAG (C16:0, C16:1), treatment ratio versus control (rats [2]; [13]): 0.4 *
trans-4-Hydroxyproline, treatment ratio versus control (rats [2]; [13]): 0.87 *
Structure (SMILES): Oc1ccc(O)cc1 [Hydroquinone]

Structure (SMILES): ClC(Cl)=C(Cl)C(Cl)=C(Cl)Cl [Hexachlorobutadiene]
Docosahexaenoic acid (C22:cis[4,7,10,13,16,19]6), treatment ratio versus control (rats [2]; [14]): 1.19 *
Docosapentaenoic acid (C22:cis[7,10,13,16,19]5), treatment ratio versus control (rats [2]; [14]): 1.61 *
Eicosanoic acid (C20:0), treatment ratio versus control (rats [2]; [14]): 1.56 *
Glycerol, lipid fraction, treatment ratio versus control (rats [2]; [14]): 1.29 *
Leucine, treatment ratio versus control (rats [2]; [14]): 1.34 *
Phosphate (inorganic and organic phosphates), treatment ratio versus control (rats [2]; [14]): 1.19 *
Hippuric acid, treatment ratio versus control (rats [2]; [15]): 0.35 *
Lactate, treatment ratio versus control (rats [2]; [15]): 0.62 *
Glycerol-3-phosphate, polar fraction, treatment ratio versus control (rats [2]; [12]): 1.58 *
Isoleucine, treatment ratio versus control (rats [2]; [12]): 1.11 *
Leucine, treatment ratio versus control (rats [2]; [12]): 1.17 *
Lysophosphatidylethanolamine (C22:0), treatment ratio versus control (rats [2]; [12]): 1.33 *
Ornithine, treatment ratio versus control (rats [2]; [12]): 1.35 *
TAG No 02, treatment ratio versus control (rats [2]; [12]): 1.47 *
Threonine, treatment ratio versus control (rats [2]; [12]): 1.3 *
14-Methylhexadecanoic acid, treatment ratio versus control (rats [2]; [13]): 0.82 *
16-Methylheptadecanoic acid, treatment ratio versus control (rats [2]; [13]): 0.51 *
18-Hydroxy-11-deoxycorticosterone, treatment ratio versus control (rats [2]; [13]): 0.49 *
Citrate, treatment ratio versus control (rats [2]; [13]): 0.93 *
DAG (C18:1, C18:2), treatment ratio versus control (rats [2]; [13]): 0.66 *
Elaidic acid (C18:trans[9]1), treatment ratio versus control (rats [2]; [13]): 0.8 *
Isopalmitic acid (C16:0), treatment ratio versus control (rats [2]; [13]): 0.61 *
Ketoleucine, treatment ratio versus control (rats [2]; [13]): 0.91 *
Linolenic acid (C18:cis[9,12,15]3), treatment ratio versus control (rats [2]; [13]): 0.6 *
Lysophosphatidylcholine (C18:0), treatment ratio versus control (rats [2]; [13]): 0.97 *
Oleic acid (C18:cis[9]1), treatment ratio versus control (rats [2]; [13]): 0.71 *
Palmitoleic acid (C16:cis[9]1), treatment ratio versus control (rats [2]; [13]): 0.25 *
TAG (C16:0, C16:1), treatment ratio versus control (rats [2]; [13]): 0.51 *
trans-4-Hydroxyproline, treatment ratio versus control (rats [2]; [13]): 0.74 *
